Measurements reported in the supplement of paper PMC13380429.

Experiments:
Conditions in all cases: 72 h
[1] = test system: Calu-3; experiment: drug sensitivity score (DSS) for viability; higher = more toxic; extreme values may be limits of the assay
[2] = test system: Vero E6; experiment: as above
[3] = test system: U2OS; experiment: as above
[4] = test system: HepG2; experiment: as above
[5] = test system: Caco-2; experiment: as above
[6] = test system: Calu-3; experiment: cell viability relative to DMSO; higher = less toxic
[7] = test system: Vero E6; experiment: as above
[8] = test system: U2OS; experiment: as above
[9] = test system: HepG2; experiment: as above
[10] = test system: Caco-2; experiment: as above
[11] = test system: Calu-3; experiment: relative viability EC50 (midpoint between 100% and the lowest measured viability); higher = less toxic
[12] = test system: Vero E6; experiment: as above
[13] = test system: U2OS; experiment: as above
[14] = test system: HepG2; experiment: as above
[15] = test system: Caco-2; experiment: as above

Row | SMILES | drug sensitivity score [1] | drug sensitivity score [2] | drug sensitivity score [3] | drug sensitivity score [4] | drug sensitivity score [5] | cell viability ([6]; 1 nM) [%] | cell viability ([6]; 10 nM) [%] | cell viability ([6]; 100 nM) [%] | cell viability ([6]; 1000 nM) [%] | cell viability ([6]; 10000 nM) [%] | cell viability ([7]; 1 nM) [%] | cell viability ([7]; 10 nM) [%] | cell viability ([7]; 100 nM) [%] | cell viability ([7]; 1000 nM) [%] | cell viability ([7]; 10000 nM) [%] | cell viability ([8]; 1 nM) [%] | cell viability ([8]; 10 nM) [%] | cell viability ([8]; 100 nM) [%] | cell viability ([8]; 1000 nM) [%] | cell viability ([8]; 10000 nM) [%] | cell viability ([9]; 1 nM) [%] | cell viability ([9]; 10 nM) [%] | cell viability ([9]; 100 nM) [%] | cell viability ([9]; 1000 nM) [%] | cell viability ([9]; 10000 nM) [%] | cell viability ([10]; 1 nM) [%] | cell viability ([10]; 10 nM) [%] | cell viability ([10]; 100 nM) [%] | cell viability ([10]; 1000 nM) [%] | cell viability ([10]; 10000 nM) [%] | relative viability EC50 [11] [µM] | relative viability EC50 [12] [µM] | relative viability EC50 [13] [µM] | relative viability EC50 [14] [µM] | relative viability EC50 [15] [µM]
1 | COc1cccc2cc(-c3nc([C@H]4CC[C@H](C(=O)O)CC4)n4ncnc(N)c34)[nH]c12 [OSI-027] | 15.9 | 6.2 | 9.7 | 9.9 | 9.9 | 92.4 | 100 | 70.6 | 33.7 | 26.3 | 102 | 103 | 98.3 | 80.1 | 39.7 | 92.5 | 100 | 92.3 | 57.2 | 17.2 | 112 | 106 | 102 | 48.8 | 28.4 | 98.5 | 100 | 86.4 | 56.7 | 26.3 | 0.145 | 1.33 | 0.903 | 0.693 | 0.603
2 | CC(=O)NC[C@H]1CN(c2ccc(-c3ccc(CNCc4cnn[nH]4)cc3)c(F)c2)C(=O)O1 [radezolid] | 0 | 0 | 0 | 8.1 | 0 | 104 | 97.6 | 97.4 | 90.6 | 101 | 100 | 96.2 | 99.3 | 93.8 | 93.6 | 98.9 | 98.8 | 99.7 | 96.4 | 94.2 | 105 | 106 | 108 | 54.4 | 49.2 | 96.8 | 106 | 104 | 118 | 87.8 | > 10 | > 10 | > 10 | 0.472 | > 10
3 | N=C1NC(=O)/C(=C/c2ccc(O)cc2)S1 [mirin] | 0.1 | 0 | 0 | 0 | 0 | 89.9 | 105 | 94.8 | 93.4 | 87.8 | 99.2 | 96.2 | 96.5 | 93.3 | 104 | 95.3 | 101 | 97.5 | 99.6 | 97.9 | 98.3 | 91.1 | 95.2 | 98 | 96.8 | 95 | 97.8 | 101 | 97.6 | 96.2 | > 10 | > 10 | > 10 | > 10 | > 10
4 | CN(Cc1cccc(-c2ccccc2)c1)C(=O)Oc1ccc(-c2ccc(C(N)=O)cc2)cc1 [WWL-123] | 0 | 0 | 0 | 0 | 0.4 | 101 | 99.7 | 101 | 105 | 99.4 | 101 | 100 | 101 | 99.5 | 98.3 | 101 | 98.7 | 102 | 98 | 101 | 95.9 | 110 | 108 | 102 | 100 | 99.1 | 95.4 | 98.1 | 91.8 | 84.8 | > 10 | > 10 | > 10 | > 10 | > 10
5 | CC[C@H]1OC(=O)[C@H](C)[C@@H](O[C@H]2C[C@@](C)(OC)[C@@H](O)[C@H](C)O2)[C@H](C)[C@@H](O[C@@H]2O[C@H](C)C[C@H](N(C)C)[C@H]2O)[C@](C)(O)C[C@@H](C)CN(C)[C@H](C)[C@@H](O)[C@]1(C)O [azithromycin] | 0 | 0 | 0 | 0 | 0 | 96.2 | 94.5 | 104 | 89.8 | 106 | 107 | 103 | 100 | 99.7 | 101 | 95.5 | 98.7 | 104 | 96.6 | 98.2 | 111 | 105 | 83.5 | 105 | 92 | 89.6 | 104 | 96.7 | 101 | 92.2 | > 10 | > 10 | > 10 | > 10 | > 10
6 | COc1ccc(CCN(C)CCCN2CCc3cc(OC)c(OC)cc3CC2=O)cc1OC [zatebradine] | 0 | 0 | 0 | 0 | 0 | 97 | 100 | 92.9 | 105 | 94.2 | 94.1 | 98.4 | 93.4 | 96 | 88 | 101 | 94.5 | 99.1 | 97.6 | 97.6 | 105 | 99.4 | 100 | 103 | 97.7 | 97.2 | 90.5 | 92.9 | 99.6 | 94.4 | > 10 | > 10 | > 10 | > 10 | > 10
7 | CNCCn1c(=O)c2cc(OC)c(OC)cc2c2cnc3cc4c(cc3c21)OCO4 | 11.8 | 9.1 | 7.3 | 20.8 | 10 | 95.8 | 92.9 | 84.8 | 46.3 | 30.2 | 97.6 | 94.7 | 97.9 | 58.6 | 24.6 | 96.1 | 99.5 | 97.3 | 78.9 | 25.9 | 112 | 92.1 | 56.8 | 18.6 | -0.3 | 95.5 | 95.9 | 89.4 | 58 | 9 | 0.313 | 0.891 | 1.44 | 0.149 | 1.04
8 | N#C/C(=C\c1ccc(O)c(O)c1)C(N)=O [tyrphostin-AG-99] | 0 | 0 | 0 | 0 | 0 | 102 | 97.2 | 103 | 111 | 112 | 94 | 98.6 | 98.3 | 93.4 | 107 | 100 | 94.7 | 102 | 105 | 100 | 96.3 | 112 | 104 | 110 | 102 | 96.9 | 92.5 | 96.4 | 92.2 | 103 | > 10 | > 10 | > 10 | > 10 | > 10
9 | CCOC(=O)Nc1ccc2c(c1)N(C(=O)CN(CC)CC)c1ccccc1CC2 [CINPA-1] | 0 | 0 | 0 | 0 | 0 | 109 | 99.6 | 99.5 | 91.9 | 107 | 95.2 | 106 | 96.6 | 100 | 91 | 105 | 102 | 99.5 | 97.6 | 99.1 | 97.7 | 106 | 99.1 | 96.7 | 93.7 | 103 | 96.1 | 100 | 100 | 92.2 | > 10 | > 10 | > 10 | > 10 | > 10
10 | O=C(O[C@H]1CN2CCC1CC2)N(Cc1cc(F)c(F)c(F)c1)c1cccc(F)c1 [tarafenacin] | 0 | 0 | 0 | 0 | 0 | 96.4 | 106 | 106 | 113 | 96.2 | 99.7 | 99.6 | 107 | 98.7 | 90.2 | 95.7 | 102 | 100 | 103 | 91.3 | 115 | 106 | 108 | 96.5 | 99.3 | 102 | 96.5 | 91.3 | 104 | 95.7 | > 10 | > 10 | > 10 | > 10 | > 10
11 | CC(C)OC(=O)OCOP(=O)(CO[C@H](C)Cn1cnc2c(N)ncnc21)OCOC(=O)OC(C)C [tenofovir-disoproxil] | 1 | 0 | 0 | 5.6 | 0 | 97.1 | 104 | 97.1 | 95.4 | 80.8 | 102 | 94.9 | 96 | 94.3 | 96.7 | 96.2 | 101 | 92.6 | 103 | 95.8 | 102 | 101 | 109 | 82.2 | 44.6 | 96.3 | 93 | 93.8 | 97.2 | 89 | > 10 | > 10 | > 10 | 1.35 | > 10
12 | CC(C)n1nc(-c2cc3cc(O)ccc3[nH]2)c2c(N)ncnc21 [PP242] | 16 | 8.7 | 9.8 | 10.8 | 13.1 | 107 | 94.2 | 79.6 | 26.5 | 20.1 | 107 | 105 | 96.2 | 67.9 | 15.9 | 99.2 | 99 | 96 | 56.1 | 16.4 | 100 | 121 | 90.2 | 50 | 19.8 | 104 | 88.9 | 80.4 | 41.4 | 31.3 | 0.203 | 1.26 | 0.927 | 0.652 | 0.208
13 | CC1(C)CC[C@]2(C(=O)O)CC[C@]3(C)C(=CC[C@@H]4[C@@]5(C)CC[C@H](O)C(C)(C)[C@@H]5CC[C@]43C)[C@@H]2C1 [oleanolic-acid] | 0 | 0 | 0 | 0 | 0 | 109 | 110 | 98.3 | 109 | 89.8 | 96.3 | 94.7 | 94.9 | 95.3 | 95.3 | 95.2 | 98.1 | 94.4 | 102 | 94.5 | 106 | 96.2 | 89.9 | 99.9 | 94.7 | 104 | 97.1 | 93 | 104 | 95.6 | > 10 | > 10 | > 10 | > 10 | > 10
